Laboratory results published in US20190298694A1, “Use Of Carbamate Compound For Preventing Or Treating Fibromyalgia Or Functional Syndrome Associated With Fibromyalgia” (SK BIOPHARMACEUTICALS CO., LTD., priority 2016, published 2019).
Marks after values point to notes of the source that are not given here.

Tested on: mechanical allodynia induced by injection of acidic saline into gastrocnemius muscle
Assay: Pain suppression in animal model of fibromyalgia: mechanical allodynia induced by repeated intramuscular acidic saline, paw withdrawal threshold by von Frey filaments (up-down method)
Format: in vivo, rats (Sprague-Dawley)
Details: for Area under the curve of the paw withdrawal threshold curve over time, compared with the vehicle group: ip
Source text: Musculoskeletal pain is a major feature of fibromyalgia. A model that is linked to musculoskeletal pain in humans has been developed by Sluka K A, which model is characterized by mechanical sensitization induced by repeated intramuscular injections of acidic saline.
This experiment evaluated the effect of the test compound on persistent mechanical allodynia, which may well represent muscle pain or tenderness observed in patients with fibromyalgia. Repeated injections of acidic saline into the gastrocnemius muscle of rats lead to mechanical allodynia due to central sensitization (Sluka K A et. al., Unilateral intramuscular injections of acidic saline produce a bilateral, long-lasting hyperalgesia, Muscle Nerve. 2001).
Male rats (Sprague-Dawley, 150-200 g, 6 weeks old, Orient Bio Co., Ltd.) were purchased and subjected to acclimatization for more than 1 week in an animal chamber. The experimental animals were maintained under conditions of light-and-darkness cycle of 12 hours, a temperature of 22 to 25° C., a relative humidity of 40 to 60%, and free access to water and food.
Mechanical allodynia was assessed by measuring the paw withdrawal threshold of the rat right hind paw using Dixon's “up-down method” (Chaplan et. al., Quantitative assessment of tactile allodynia in the rat paw. J Neurosci Methods, 1994; Dixon W J, Efficient analysis of experimental observations, Annu Rev Pharmacol Toxicol. 1980). First, the rats were placed in an acrylic box (13×25×13 cm3) located on a wire mesh installed at a height of about 35 cm from the floor and stabilized for more than 20 minutes. […] von Frey filaments with various bending forces (0.2, 0.4, 0.6, 1.0, 2.0, 4.0, 6.0, 8.0, 15.0 g) were used. Starting with a filament of 2.0 g, bending force was applied perpendicular to the sole surface. In the case of no withdrawal (avoidance response), the next higher bending force filament was applied, or, in the case of withdrawal (avoidance response), the next lower bending force filament was applied. In order to obtain at least six (6) response results, the application of filaments was proceeded four (4) more times after showing the change in withdrawal.
The baseline withdrawal (avoidance response) threshold for mechanical stimulation on the right hind paw of rats was measured. 100 μl of preservative-free acidic saline (0.9% sodium chloride, pH 4.0) was intramuscularly injected into the right gastrocnemius muscle of the rats. After 5 days, the acidic saline was intramuscularly injected again into the same region by the same method. At 7 or 8 days after the second administration of acidic saline, induction of mechanical allodynia was confirmed by measuring withdrawal (avoidance response) thresholds to mechanical stimulation on the right hind paw, and rats with a mechanical withdrawal (avoidance response) threshold of less than 4.5 g were used for the evaluation of the test drug (Sluka K A et. al., Unilateral intramuscular injections of acidic saline produce a bilateral, long-lasting hyperalgesia, Muscle Nerve. 2001).
The test compound was prepared as a solution using 30% PEG 400 and 70% distilled water on a volume basis. Each solution was administered intraperitoneally to the rats at a volume of 3 ml per kg of rat. Withdrawal (avoidance response) thresholds to mechanical stimulation were measured at 30 minutes, 1 hour, 2 hours and 4 hours after drug administration.
[% MPE=(threshold over time after drug treatment−threshold at 0 hour)/(threshold of normal group−threshold at 0 hour)×100]
The vehicle or the test compound was administered intraperitoneally at doses of 5, 10 and 20 mg/kg, and withdrawal thresholds to mechanical stimulation were measured at 30 minutes, 1 hour, 2 hours and 4 hours.

Q: What does the source list for `NC(=O)O[C@@H](Cn1ncnn1)c1ccccc1Cl` [Test compound]?
A: Withdrawal threshold of the right hind paw to mechanical stimulation (mean) (5 mg/kg ip group, 0 h (pre-dose, after acidic saline)): 2.97 g; Withdrawal threshold of the right hind paw to mechanical stimulation (mean) (5 mg/kg ip group, baseline, prior to first injection of acidic saline (pre-dose)): 13.69 g; Effect (%) (% MPE, percent of maximum possible effect) (5 mg/kg ip, 30 min): 10.8%; Withdrawal threshold of the right hind paw to mechanical stimulation (mean) (5 mg/kg ip, 30 min after administration): 4.02 g; Effect (%) (% MPE, percent of maximum possible effect) (5 mg/kg ip, 1 h): 35.6%; Withdrawal threshold of the right hind paw to mechanical stimulation (mean) (5 mg/kg ip, 1 h after administration): 6.41^d g; Effect (%) (% MPE, percent of maximum possible effect) (5 mg/kg ip, 2 h): 38.3%; Withdrawal threshold of the right hind paw to mechanical stimulation (mean) (5 mg/kg ip, 2 h after administration): 6.67^e g; Effect (%) (% MPE, percent of maximum possible effect) (5 mg/kg ip, 4 h): 10.7%; Withdrawal threshold of the right hind paw to mechanical stimulation (mean) (5 mg/kg ip, 4 h after administration): 4.01 g; Withdrawal threshold of the right hind paw to mechanical stimulation (mean) (10 mg/kg ip group, 0 h (pre-dose, after acidic saline)): 3.20 g; Withdrawal threshold of the right hind paw to mechanical stimulation (mean) (10 mg/kg ip group, baseline, prior to first injection of acidic saline (pre-dose)): 14.29 g; Effect (%) (% MPE, percent of maximum possible effect) (10 mg/kg ip, 30 min): 11.4%; Withdrawal threshold of the right hind paw to mechanical stimulation (mean) (10 mg/kg ip, 30 min after administration): 4.27 g; Effect (%) (% MPE, percent of maximum possible effect) (10 mg/kg ip, 1 h): 47.5%; Withdrawal threshold of the right hind paw to mechanical stimulation (mean) (10 mg/kg ip, 1 h after administration): 7.68^e g; Effect (%) (% MPE, percent of maximum possible effect) (10 mg/kg ip, 2 h): 43.5%; Withdrawal threshold of the right hind paw to mechanical stimulation (mean) (10 mg/kg ip, 2 h after administration): 7.30^e g; Effect (%) (% MPE, percent of maximum possible effect) (10 mg/kg ip, 4 h): 11.3%; Withdrawal threshold of the right hind paw to mechanical stimulation (mean) (10 mg/kg ip, 4 h after administration): 4.26 g; Area under the curve of the paw withdrawal threshold curve over time, compared with the vehicle group (10 mg/kg): statistically significant effects; Withdrawal threshold of the right hind paw to mechanical stimulation (mean) (20 mg/kg ip group, 0 h (pre-dose, after acidic saline)): 2.95 g; Withdrawal threshold of the right hind paw to mechanical stimulation (mean) (20 mg/kg ip group, baseline, prior to first injection of acidic saline (pre-dose)): 13.83 g; Effect (%) (% MPE, percent of maximum possible effect) (20 mg/kg ip, 30 min): 44.6%; Withdrawal threshold of the right hind paw to mechanical stimulation (mean) (20 mg/kg ip, 30 min after administration): 7.28^d g; Effect (%) (% MPE, percent of maximum possible effect) (20 mg/kg ip, 1 h): 73.2%; Withdrawal threshold of the right hind paw to mechanical stimulation (mean) (20 mg/kg ip, 1 h after administration): 10.04^e g; Effect (%) (% MPE, percent of maximum possible effect) (20 mg/kg ip, 2 h): 82.2%; Withdrawal threshold of the right hind paw to mechanical stimulation (mean) (20 mg/kg ip, 2 h after administration): 10.92^e g; Effect (%) (% MPE, percent of maximum possible effect) (20 mg/kg ip, 4 h): 16.2%; Withdrawal threshold of the right hind paw to mechanical stimulation (mean) (20 mg/kg ip, 4 h after administration): 4.52 g; Area under the curve of the paw withdrawal threshold curve over time, compared with the vehicle group (20 mg/kg): statistically significant effects; Area under the curve of the paw withdrawal threshold curve over time (5, 10 and 20 mg/kg ip, dose dependence): dose-dependent effect; Muscle mechanical hyperalgesia in the chronic myalgia model (dose-dependent manner): significantly reduces; Mechanical allodynia induced by repeated injections of acidic saline (intraperitoneally at doses of 5, 10 and 20 mg/kg): significantly inhibited; Effect in the fibromyalgia disease model (overall conclusion): significant effect
